Our source for the IC50 and GI50 values is patent US20230183243A1, “HETEROARYL DERIVATIVES AND PHARMACEUTICAL COMPOSITION COMPRISING SAME AS ACTIVE INGREDIENT” (VORONOI INC., priority 2019, published 2023).

The target in one assay is T1, TTK (Homo sapiens, UniProt P33981).
T1 sequence (P33981 1-857): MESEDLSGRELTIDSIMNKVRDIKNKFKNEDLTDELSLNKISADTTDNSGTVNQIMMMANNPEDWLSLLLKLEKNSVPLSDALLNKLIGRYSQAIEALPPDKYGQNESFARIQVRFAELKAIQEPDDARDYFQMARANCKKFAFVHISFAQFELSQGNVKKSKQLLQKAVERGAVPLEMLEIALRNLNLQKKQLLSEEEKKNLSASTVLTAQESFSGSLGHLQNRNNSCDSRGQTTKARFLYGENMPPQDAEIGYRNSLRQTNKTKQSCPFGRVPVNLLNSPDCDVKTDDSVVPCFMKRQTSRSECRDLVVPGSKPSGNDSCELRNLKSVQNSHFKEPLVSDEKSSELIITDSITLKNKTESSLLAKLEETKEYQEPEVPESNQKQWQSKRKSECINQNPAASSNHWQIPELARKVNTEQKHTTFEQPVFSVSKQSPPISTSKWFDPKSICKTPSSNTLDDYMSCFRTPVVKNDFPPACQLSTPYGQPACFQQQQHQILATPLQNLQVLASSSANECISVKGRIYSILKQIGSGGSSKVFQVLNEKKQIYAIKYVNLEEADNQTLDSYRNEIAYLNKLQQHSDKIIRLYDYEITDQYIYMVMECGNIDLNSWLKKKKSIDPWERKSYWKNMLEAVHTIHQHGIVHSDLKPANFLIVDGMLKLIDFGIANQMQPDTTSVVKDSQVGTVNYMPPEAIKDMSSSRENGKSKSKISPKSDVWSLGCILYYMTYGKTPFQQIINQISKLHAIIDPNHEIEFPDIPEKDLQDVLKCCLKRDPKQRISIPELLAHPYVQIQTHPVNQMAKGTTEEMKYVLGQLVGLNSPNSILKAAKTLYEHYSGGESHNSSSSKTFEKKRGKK
Description: TTK enzyme activity, ADP-Glo kinase assay. In kind it is biochemical. Set-up: purchased SignalChem T20-10G. As to conditions: purified human TTK, ATP 10 μM, 25° C., 2 hours. The protocol:
To evaluate an inhibitory activity of the compound according to the present invention against TTK (MPS1), an experiment was performed as follows.
Each of the Example compounds was reacted with a purified human TTK (SignalChem #T20-10G) enzyme to evaluate an ability to inhibit an enzyme using a method as described below. A composition of 40 mM Tris-HCl (pH 7.4), 20 mM MgCl2, 0.5 mg/mL BSA, and 50 μM DTT was used as a reaction buffer, and all reactions of test substances were performed in the reaction buffer. […] In the test, purified ATP (10 μM) and an enzyme substrate (0.2 μg) were reacted with a human TTK (25 ng) enzyme at 25° C. for 2 hours, and the enzyme activity was determined using an in vitro ADP-Glo™ kinase assay (Promega). […] The degree of inhibition of the enzyme activity according to the treatment concentration of each of the compounds was calculated based on the fluorescence of the enzyme activity of the solvent control which was not treated with the compound.
(In general: ADP-Glo first removes unused ATP, then detects ADP through luciferase.)

For the next assay, the system named is MDA-MB-231 cells. Kind of assay: Inhibition of proliferation of triple-negative breast cancer cells, CellTiter-Glo. The class given is cell-based. As to conditions: Homo sapiens, 120 h; MDA-MB-231, cultured for 5 days. The protocol:
Specifically, the following test was performed in order to evaluate the inhibitory activity of the compound according to the present invention against the cell proliferation in triple-negative breast cancer cells (TNBCs).
Cells were seeded in 180 μL of a culture broth at a density of 2,000 to 3,000 cells/well in a white clear bottom 96-well plate (Corning) according to the growth ability of each cell, and then cultured for 24 hours under conditions of 5% CO2 and 37° C. Thereafter, the compound was prepared by diluting a 10 mM stock solution three-fold with 100% DMSO at a total of 12 concentrations so that a peak concentration of the compound was in a range of 10 mM to 0.05 μM, and the diluted compound was then diluted in each cell culture medium so that a final concentration of the compound was in a range of 100 μM to 0.5 nM. 20 μL of a diluted solution diluted with a medium was added to the cell solution in which cells were seeded in the 96-well plate on the previous day so that a final concentration of the diluted solution was in a range of 10 μM to 0.05 nM. Each of the cells was cultured for 5 days. To check cell viability, a mixture provided in a CellTiter-Glo® Luminescent Cell Viability Assay Kit (Promega) was added to each of the cultured cell media, and cultured for another 10 minutes under a condition of 37° C. Then, a degree of luminescence (fluorescence) was measured. A degree of inhibition of the cell growth according to the treatment concentration of each of the compounds was calculated based on the fluorescence of the solvent control cells which were not treated with the compound.
(Cellular ATP, detected with luciferase, serves as a proxy for viable cell number.)

For the compound `CCCCNc1nc(Nc2ccc(-c3nncn3C)cc2OCC)nc2[nH]cc(C#N)c12` [Example 11, 4-(butylamino)-2-((2-ethoxy-4-(4-methyl-4H-1,2,4-triazol-3-yl)phenyl)amino)-7H-pyrrolo[2,3-d] pyrimidine-5-carbonitrile], the half-inhibitory concentration (IC50) against TTK is less than 50 nM. The GI50 with MDA-MB-231 cells is less than 100 nM.

As for `COc1cc(-c2ccnn2C)ccc1Nc1nc(NCC(C)(C)C)c2c(C#N)c[nH]c2n1` [Example 12, 2-((2-methoxy-4-(1-methyl-1H-pyrazol-5-yl)phenyl)amino)-4-(neopentylamino)-7H-pyrrolo[2,3-d] pyrimidine-5-carbonitrile], at TTK, the IC50 is less than 50 nM. Further, the GI50 in the assay on MDA-MB-231 cells is greater than 1000 nM.

As to `CCOc1cc(-c2nncn2C)ccc1Nc1nc(NCCS(C)(=O)=O)c2c(C#N)c[nH]c2n1` [Example 14, 2-((2-ethoxy-4-(4-methyl-4H-1,2,4-triazol-3-yl)phenyl)amino)-4-((2-(methylsulfonyl)ethyl)amino)-7H-pyrrolo[2,3-d] pyrimidine-5-carbonitrile], the half-maximal inhibitory concentration (IC50) against TTK is less than 50 nM. In addition, the GI50 in the assay with MDA-MB-231 cells was 100 to 1000 nM.

Turning to `COc1cc(-c2nccs2)ccc1Nc1nc(NC2CCCC2)c2c(C#N)c[nH]c2n1` [Example 17, 4-(cyclopentylamino)-2-((2-methoxy-4-(thiazol-2-yl)phenyl)amino)-7H-pyrrolo[2,3-d] pyrimidine-5-carbonitrile], the IC50 against TTK lay in the range of 200 to 1000 nM. Also, the 50% growth inhibitory concentration (GI50) in the assay on MDA-MB-231 cells was less than 100 nM.

The compound `COc1cc(-c2c(C)noc2C)ccc1Nc1nc(NC2CCCCC2)c2c(C#N)c[nH]c2n1` [Example 18, 4-(cyclohexylamino)-2-((4-(3,5-dimethylisoxazol-4-yl)-2-methoxyphenyl)amino)-7H-pyrrolo[2,3-d] pyrimidine-5-carbonitrile] registered a concentration for half-maximal inhibition (IC50) against TTK of less than 50 nM. In the assay with MDA-MB-231 cells, this compound had a GI50 of less than 100 nM.

`COc1cc(-c2cnn(C3CCOCC3)c2)ccc1Nc1nc(NC2CCCCC2)c2c(C#N)c[nH]c2n1` [Example 19, 4-(cyclohexylamino)-2-((2-methoxy-4-(1-(tetrahydro-2H-pyran-4-yl)-1H-pyrazol-4-yl)phenyl)amino)-7H-pyrrolo[2,3-d] pyrimidine-5-carbonitrile] had an IC50 against TTK of 50 to 200 nM. The compound further gave a GI50 in the assay on MDA-MB-231 cells of less than 100 nM.

In turn, `COc1cc(-c2cnn(C3COC3)c2)ccc1Nc1nc(NC2CCCCC2)c2c(C#N)c[nH]c2n1` [Example 20, 4-(cyclohexylamino)-2-((2-methoxy-4-(1-(oxetan-3-yl)-1H-pyrazol-4-yl)phenyl)amino)-7H-pyrrolo[2,3-d] pyrimidine-5-carbonitrile] gave an IC50 at TTK of less than 50 nM. The compound further had a GI50 in the assay on MDA-MB-231 cells of less than 100 nM.

Compound `CC(=O)N1CCN(Cc2ccc(-c3ccc(Nc4nc(NC5CCCCC5)c5c(C#N)c[nH]c5n4)cc3)cc2)CC1` [Example 21] showed an IC50 against TTK of 50 to 200 nM. The GI50 in the assay with MDA-MB-231 cells was in the range of 100 to 1000 nM.

`N#Cc1c[nH]c2nc(Nc3ccc(-c4ccc(CN5CCN(C6CC6)CC5)cc4)cc3)nc(NC3CCCCC3)c12` [Example 22, 4-(cyclohexylamino)-2-((4′-((4-cyclopropylpiperazin-l-yl)methyl)-[1,1′-biphenyl]-4-yl)amino)-7H-pyrrolo[2,3-d] pyrimidine-5-carbonitrile] registered a half-maximal inhibitory concentration (IC50) against TTK of less than 50 nM. Further, in the assay with MDA-MB-231 cells, the concentration for 50% growth inhibition (GI50) is 100 to 1000 nM.

On to `COc1cc(-c2ccc(CN3CCN(C(C)=O)CC3)cc2)ccc1Nc1nc(NC2CCCCC2)c2c(C#N)c[nH]c2n1` [Example 23, 2-((4′-((4-acetylpiperazin-1-yl)methyl)-3-methoxy-[1,1′-biphenyl]-4-yl)amino)-4-(cyclohexylamino)-7H-pyrrolo[2,3-d] pyrimidine-5-carbonitrile], for which, at TTK, the IC50 was 50 to 200 nM. Moreover, the GI50 in the assay with MDA-MB-231 cells is less than 100 nM.

For the compound `COc1cc(-c2ccc(F)nc2)ccc1Nc1nc(NC2CCCCC2)c2c(C#N)c[nH]c2n1` [Example 24, 4-(cyclohexylamino)-2-((4-(6-fluoropyridin-3-yl)-2-methoxyphenyl)amino)-7H-pyrrolo[2,3-d] pyrimidine-5-carbonitrile], on TTK, the half-inhibitory concentration (IC50) was less than 50 nM. The compound further returned a 50% growth inhibitory concentration (GI50) in the assay on MDA-MB-231 cells of less than 100 nM.

Regarding `COc1cc(-c2cn(C)nn2)ccc1Nc1nc(NC2CCCCC2)c2c(C#N)c[nH]c2n1` [Example 25, 4-(cyclohexylamino)-2-((2-methoxy-4-(1-methyl-1H-1,2,3-triazol-4-yl)phenyl)amino)-7H-pyrrolo[2,3-d] pyrimidine-5-carbonitrile], the IC50 against TTK lay within 200 to 1000 nM. Further, the GI50 in the assay on MDA-MB-231 cells was less than 100 nM.

Compound `COc1cc(-c2ncnn2C)ccc1Nc1nc(NC2CCCCC2)c2c(C#N)c[nH]c2n1` [Example 26, 4-(cyclohexylamino)-2-((2-methoxy-4-(l-methyl-1H-1,2,4-triazol-5-yl)phenyl)amino)-7H-pyrrolo[2,3-d] pyrimidine-5-carbonitrile] came in with an IC50 at TTK of 50 to 200 nM. The compound also had a GI50 in the assay with MDA-MB-231 cells of less than 100 nM.

`COc1cc(-c2ncn(C)n2)ccc1Nc1nc(NC2CCCCC2)c2c(C#N)c[nH]c2n1` [Example 27, 4-(cyclohexylamino)-2-((2-methoxy-4-(1-methyl-1H-1,2,4-triazol-3-yl)phenyl)amino)-7H-pyrrolo[2,3-d] pyrimidine-5-carbonitrile]: the half-inhibitory concentration (IC50) against TTK was less than 50 nM. In addition, in the assay with MDA-MB-231 cells, the GI50 is less than 100 nM.

On TTK, `CC(C)COc1cc(N2CCCC2=O)ccc1Nc1nc(NC2CCCC2)c2c(C#N)c[nH]c2n1` [Example 28, 4-(cyclopentylamino)-2-((2-isobutoxy-4-(2-oxopyrrolidin-1-yl)phenyl)amino)-7H-pyrrolo[2,3-d] pyrimidine-5-carbonitrile] showed a concentration for half-maximal inhibition (IC50) of 200 to 1000 nM. Further, the GI50 in the assay with MDA-MB-231 cells is greater than 1000 nM.

For `COc1cc(-c2cncn2C)ccc1Nc1nc(NC2CCCC2)c2c(C#N)c[nH]c2n1` [Example 30, 4-(cyclopentylamino)-2-((2-methoxy-4-(1-methyl-1H-imidazol-5-yl)phenyl)amino)-7H-pyrrolo[2,3-d] pyrimidine-5-carbonitrile], the IC50 at TTK was less than 50 nM. Further, the GI50 in the assay on MDA-MB-231 cells was less than 100 nM.

As to `COc1cc(-c2nnc3n2CCC3)ccc1Nc1nc(NC2CCCCC2)c2c(C#N)c[nH]c2n1` [Example 31, 4-(cyclohexylamino)-2-((4-(6,7-dihydro-5H-pyrrolo[2,1-c] [1,2,4]triazol-3-yl)-2-methoxyphenyl)amino)-7H-pyrrolo[2,3-d] pyrimidine-5-carbonitrile], the IC50 against TTK is less than 50 nM. In the assay with MDA-MB-231 cells, this compound showed a 50% growth inhibitory concentration (GI50) of less than 100 nM.

In turn, `COc1cc(N2CCCC2=O)ccc1Nc1nc(O[C@H]2CC[C@@](C)(O)CC2)c2c(C#N)c[nH]c2n1` [Example 32, 4-(((1s,4s)-4-hydroxy-4-methylcyclohexyl)oxy)-2-((2-methoxy-4-(2-oxopyrrolidin-1-yl)phenyl)amino)-7H-pyrrolo[2,3-d] pyrimidine-5-carbonitrile 2,2,2-trifluoroacetate] came in with a half-inhibitory concentration (IC50) against TTK of less than 50 nM. The compound also registered a GI50 in the assay on MDA-MB-231 cells of less than 100 nM.

As for `Cn1nccc1-c1ccc(Nc2nc(NC3CCCC3)c3c(C#N)c[nH]c3n2)c2c1CCO2` [Example 33, 4-(cyclopentylamino)-2-((4-(1-methyl-1H-pyrazol-5-yl)-2,3-dihydrobenzofuran-7-yl)amino)-7H-pyrrolo[2,3-d] pyrimidine-5-carbonitrile], the IC50 on TTK was 50 to 200 nM. Further, the GI50 with MDA-MB-231 cells is less than 100 nM.

The term IC50 denotes the concentration that inhibits the measured activity by half. For orientation: GI50 means the concentration at which growth is held to half of that of the control. High values mean lower sensitivity of the cells, low ones greater sensitivity of the cells.
